Data: US20050112573A1, “Method of detecting toxic substance” (priority 2001, published 2005)

System: yeast genes (level of expressed mRNA)
Assay: DNA chip analysis of expressed mRNA of yeast genes after 2 h culture with a toxic chemical substance
Assay type: cell-based, Saccharomyces cerevisiae S288C
How it was run: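 Values are treated-to-control fluorescence ratios from a whole-yeast-genome DNA chip (65° C, over 12 h hybridization) using Cy3/Cy5-labelled cDNA from mRNA. Log-phase S288C cells in YPD at 25° C were exposed 2 h to a toxicant at sublethal, growth-inhibiting concentration.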

## sodium dodecylbenzosulfonate [(17)]
Gene YGL104C
  level of expressed mRNA in the presence of chemical substance/in its absence: 1.3
Gene YGL126W
  level of expressed mRNA in the presence of chemical substance/in its absence: 0.9
Gene YGL134W
  level of expressed mRNA in the presence of chemical substance/in its absence: 0.9
Gene YGL154C
  level of expressed mRNA in the presence of chemical substance/in its absence: 1.0
Gene YGL183C
  The level of expressed mRNA in the presence of chemical substance/absence: YGL183C: 1.4
Gene YGL209W
  level of expressed mRNA in the presence of chemical substance/in its absence: 1.1
Gene YGL223C
  The level of expressed mRNA in the presence of chemical substance/absence: YGL223C: 0.8
Gene YGL253W
  level of expressed mRNA in the presence of chemical substance/in its absence: 0.7
Gene YGR038W
  The level of expressed mRNA in the presence of chemical substance/absence: YGR038W: 1.1
Gene YGR060W
  level of expressed mRNA in the presence of chemical substance/in its absence: 1.3
Gene YGR139W
  The level of expressed mRNA in the presence of chemical substance/absence: YGR139W: 1.0
Gene YGR156W
  The level of expressed mRNA in the presence of chemical substance/absence: YGR156W: 0.8
Gene YGR198W
  The level of expressed mRNA in the presence of chemical substance/absence: YGR198W: 1.1
Gene YGR210C
  The level of expressed mRNA in the presence of chemical substance/absence: YGR210C: 1.1
Gene YGR211W
  The level of expressed mRNA in the presence of chemical substance/absence: YGR211W: 0.5
Gene YGR237C
  The level of expressed mRNA in the presence of chemical substance/absence: YGR237C: 0.9
Gene YGR243W
  The level of expressed mRNA in the presence of chemical substance/absence: YGR243W: 2.1
Gene YGR250C
  The level of expressed mRNA in the presence of chemical substance/absence: YGR250C: 1.3
Gene YGR266W
  The level of expressed mRNA in the presence of chemical substance/absence: YGR266W: 0.7
Gene YGR277C
  The level of expressed mRNA in the presence of chemical substance/absence: YGR277C: 1.3
Gene YGR282C
  level of expressed mRNA in the presence of chemical substance/in its absence: 1.1
Gene YGR293C
  The level of expressed mRNA in the presence of chemical substance/absence: YGR293C: 0.8
Gene YHL006C
  The level of expressed mRNA in the presence of chemical substance/absence: YHL006C: 1.1
Gene YHL021C
  The level of expressed mRNA in the presence of chemical substance/absence: YHL021C: 1.3
Gene YHL037C
  The level of expressed mRNA in the presence of chemical substance/absence: YHL037C: 0.9
Gene YHR037W
  level of expressed mRNA in the presence of chemical substance/in its absence: 1.0
Gene YHR083W
  The level of expressed mRNA in the presence of chemical substance/absence: YHR083W: 0.8
Gene YHR092C
  level of expressed mRNA in the presence of chemical substance/in its absence: 0.9
Gene YHR095W
  The level of expressed mRNA in the presence of chemical substance/absence: YHR095W: 0.8
Gene YHR105W
  The level of expressed mRNA in the presence of chemical substance/absence: YHR105W: 1.0
Gene YHR134W
  The level of expressed mRNA in the presence of chemical substance/absence: YHR134W: 1.3
Gene YHR137W
  level of expressed mRNA in the presence of chemical substance/in its absence: 0.8
Gene YHR180W
  The level of expressed mRNA in the presence of chemical substance/absence: YHR180W: 0.8
Gene YHR181W
  The level of expressed mRNA in the presence of chemical substance/absence: YHR181W: 0.9
Gene YHR190W
  level of expressed mRNA in the presence of chemical substance/in its absence: 1.3
Gene YIL033C
  level of expressed mRNA in the presence of chemical substance/in its absence: 1.0
Gene YIL108W
  The level of expressed mRNA in the presence of chemical substance/absence: YIL108W: 1.2
Gene YIL127C
  The level of expressed mRNA in the presence of chemical substance/absence: YIL127C: 0.7
Gene YIL154C
  level of expressed mRNA in the presence of chemical substance/in its absence: 1.2
Gene YIL165C
  The level of expressed mRNA in the presence of chemical substance/absence: YIL165C: 1.4
Gene YIL167W
  level of expressed mRNA in the presence of chemical substance/in its absence: 0.7
Gene YIR035C
  level of expressed mRNA in the presence of chemical substance/in its absence: 1.1
Gene YJL017W
  The level of expressed mRNA in the presence of chemical substance/absence: YJL017W: 1.0
Gene YJL032W
  The level of expressed mRNA in the presence of chemical substance/absence: YJL032W: 1.1
Gene YJL037W
  The level of expressed mRNA in the presence of chemical substance/absence: YJL037W: 1.3
Gene YJL049W
  The level of expressed mRNA in the presence of chemical substance/absence: YJL049W: 0.9
Gene YJL088W
  level of expressed mRNA in the presence of chemical substance/in its absence: 1.4
Gene YJL097W
  The level of expressed mRNA in the presence of chemical substance/absence: YJL097W: 1.2
Gene YJL132W
  level of expressed mRNA in the presence of chemical substance/in its absence: 1.3
Gene YJL196C
  level of expressed mRNA in the presence of chemical substance/in its absence: 0.9
Gene YJR030C
  The level of expressed mRNA in the presence of chemical substance/absence: YJR030C: 0.7
Gene YJR044C
  The level of expressed mRNA in the presence of chemical substance/absence: YJR044C: 1.8
Gene YJR142W
  level of expressed mRNA in the presence of chemical substance/in its absence: 1.2
Gene YJR148W
  level of expressed mRNA in the presence of chemical substance/in its absence: 1.3
Gene YJR159W
  level of expressed mRNA in the presence of chemical substance/in its absence: 1.7
Gene YKL051W
  The level of expressed mRNA in the presence of chemical substance/absence: YKL051W: 1.5
Gene YKL059C
  The level of expressed mRNA in the presence of chemical substance/absence: YKL059C: 1.1
Gene YKL067W
  level of expressed mRNA in the presence of chemical substance/in its absence: 1.4
Gene YKL090W
  The level of expressed mRNA in the presence of chemical substance/absence: YKL090W: 0.7
Gene YKL094W
  The level of expressed mRNA in the presence of chemical substance/absence: YKL094W: 1.2
Gene YKL097C
  The level of expressed mRNA in the presence of chemical substance/absence: YKL097C: 1.1
Gene YKL100C
  The level of expressed mRNA in the presence of chemical substance/absence: YKL100C: 0.7
Gene YKR039W
  level of expressed mRNA in the presence of chemical substance/in its absence: 0.9
Gene YKR040C
  The level of expressed mRNA in the presence of chemical substance/absence: YKR040C: 0.7
Gene YLR097C
  The level of expressed mRNA in the presence of chemical substance/absence: YLR097C: 1.1
Gene YLR142W
  level of expressed mRNA in the presence of chemical substance/in its absence: 1.9
Gene YLR180W
  level of expressed mRNA in the presence of chemical substance/in its absence: 0.8
Gene YLR226W
  The level of expressed mRNA in the presence of chemical substance/absence: YLR226W: 1.1
Gene YLR273C
  level of expressed mRNA in the presence of chemical substance/in its absence: 1.0
Gene YLR300W
  level of expressed mRNA in the presence of chemical substance/in its absence: 0.7
Gene YLR307W
  level of expressed mRNA in the presence of chemical substance/in its absence: 1.1
Gene YLR338W
  The level of expressed mRNA in the presence of chemical substance/absence: YLR338W: 0.8
Gene YLR339C
  The level of expressed mRNA in the presence of chemical substance/absence: YLR339C: 0.7
Gene YLR392C
  The level of expressed mRNA in the presence of chemical substance/absence: YLR392C: 0.8
Gene YLR415C
  The level of expressed mRNA in the presence of chemical substance/absence: YLR415C: 0.8
Gene YLR427W
  The level of expressed mRNA in the presence of chemical substance/absence: YLR427W: 1.0
Gene YML013W
  The level of expressed mRNA in the presence of chemical substance/absence: YML013W: 1.1
Gene YML029W
  The level of expressed mRNA in the presence of chemical substance/absence: YML029W: 1.2
Gene YML041C
  The level of expressed mRNA in the presence of chemical substance/absence: YML041C: 1.3
Gene YML079W
  The level of expressed mRNA in the presence of chemical substance/absence: YML079W: 1.4
Gene YML110C
  level of expressed mRNA in the presence of chemical substance/in its absence: 1.1
Gene YML118W
  The level of expressed mRNA in the presence of chemical substance/absence: YML118W: 1.5
Gene YMR068W
  The level of expressed mRNA in the presence of chemical substance/absence: YMR068W: 1.3
Gene YMR071C
  The level of expressed mRNA in the presence of chemical substance/absence: YMR071C: 1.2
Gene YMR105C
  level of expressed mRNA in the presence of chemical substance/in its absence: 1.6
Gene YMR114C
  The level of expressed mRNA in the presence of chemical substance/absence: YMR114C: 1.0
Gene YMR115W
  The level of expressed mRNA in the presence of chemical substance/absence: YMR115W: 1.0
Gene YMR160W
  The level of expressed mRNA in the presence of chemical substance/absence: YMR160W: 0.9
Gene YMR189W
  level of expressed mRNA in the presence of chemical substance/in its absence: 1.0
Gene YMR258C
  The level of expressed mRNA in the presence of chemical substance/absence: YMR258C: 1.1
Gene YMR271C
  level of expressed mRNA in the presence of chemical substance/in its absence: 1.3
Gene YMR272C
  level of expressed mRNA in the presence of chemical substance/in its absence: 1.3
Gene YMR296C
  level of expressed mRNA in the presence of chemical substance/in its absence: 0.8
Gene YNL012W
  level of expressed mRNA in the presence of chemical substance/in its absence: 1.3
Gene YNL026W
  The level of expressed mRNA in the presence of chemical substance/absence: YNL026W: 1.0
